Two compounds from patent publication US11485728B2, “Small molecules for the treatment of autoimmune diseases and cancer” (Athos Therapeutics, Inc., priority 2020, dated 2022) can be followed below.

Test [1] concerns C57BL/6 mice with DSS colitis. Nature of the test: DSS colitis in C57BL/6 mice. It counts as in vivo. The note with it: 25 mg/kg PO daily; day twelve. As for the experimental part: Dextran sodium sulfate (DSS) was added to the water 24 hrs after compound administration and weight was measured daily.
C57BL/6 mice (20-22 grams) were fed ad lib and assigned to 4 different groups (n=8/group). […] A control group received vehicle alone. After 24 hrs, mice were weighed and DSS was added to their drinking water. Mice were then treated with the test compounds and weighed daily and the DSS water was replenished every 72 hrs for 5 days, at which point, it was replaced by regular drinking water. Mice were sacrificed on day twelve and clinical scored was assessed. Intestinal tissue for and blood were also collected. Tissues were either flash frozen and kept in −80° C. for RNA and protein isolation or placed in 10% formalin solution for future histological analysis. Blood was spun at 5K rpm for 5 min and serum was collected and kept at −20° C. for multiplex cytokine analysis.
DSS colitis mouse model: C57BL/6 mice (20-22 grains) are fed ad lib and assigned to different groups (n=8/group). […] A control group receives vehicle alone. After 24 h, mice are weighed and DSS is added to their drinking water. Mice are then treated with the test compounds and weighed daily and the DSS water is replenished every 72 liars for 5 days, at which point, it is replaced by regular drinking water. Mice are sacrificed on day twelve and clinical scored was assessed. Intestinal tissue for and blood are also collected. Tissues are either flash frozen and kept in −80° C. for RNA and protein isolation or placed in 10% formalin solution for future histological analysis.

The next test relates to A-498. Nature of the test: A-498 kidney cancer cell viability (Real-Time-Glo). It counts as cell-based. As to conditions: Homo sapiens, A498; 72 hr; read-out: IC50, Cell line: A-498. The method, then: (§1) To determine the plating density for cell viability assays, for each cell line, cells were counted and diluted to final densities of 2.5, 5, 10 and 20 thousand per 100 μl of their respective growth media per well in 96 well plates. A Promega Real-Time-Glo cell viability kit was used to determine the optimal concentration for cell plating so that each cell line would be within the linear part of its growth curve after 72 hrs in culture. For the determination of test compound IC50s different cancer cell lines were plated in 96 well plates in the pre-determined optimal density for each cell line. Test compounds were then added at different concentrations for the creation of six-point curve and cell density was determined using the Promega Real-Time-Glo cell viability kit after 24, 48, and 72 hrs in culture. Test compound 72 hr IC50s were calculated using the AAT Bioquest IC50 calculator.

In a further test the test system is 5637. In words: 5637 bladder cancer cell viability (Real-Time-Glo). The test is classed as cell-based. The note with it: 72 hr; read-out: IC50, Cell line: 5637. The method, then:
as §1
The following compounds are evaluated for their ability to block cancer cell growth in colon (HT-29), liver (HepG2), pancreatic (MiaPaca-2) and bladder (5637) cancer cell lines. Specifically, the Promega Real-Time-Glo cell viability kit was used to determine the optimal concentration for cell plating so that each cell line would be within the linear part of its growth curve after 72 hrs in culture. For the determination of test compound IC50s different cancer cell lines are plated in 96 well plates in the pre-determined optimal density for each cell line. Test compounds are then added at different concentrations for the creation of six-point curve and cell density is determined using the Promega Real-Time-Glo cell viability kit after 24, 48, and 72 hrs in culture. Test compound 72 hr IC50s is calculated using the AAT Bioquest IC50 calculator.

Test [2] concerns HT-29 colorectal cancer cells. In words: HT-29 cell viability (Real-Time-Glo). The test is classed as cell-based. As to conditions: Homo sapiens, HT-29; 72 hr; read-out: IC50, Cell line: HT-29. As for the experimental part: Equal volume of 2× RealTime-Glo™ reagent (2 μl of MT Cell Viability Substrate 1,000×, and 2 μl of NanoLuc® Enzyme 1,000×, per 1 ml of media, Promega) was added to each well and cells were incubated at 37° C. Luminescence was evaluated at 72 h.
as §1, with “For the determination of test compound IC50s different cancer cell lines were plated in 96 well plates in the pre-determined optimal density for each cell line.” left out, “culture.” for “culture. Test compound 72 hr IC50s were calculated using the AAT Bioquest IC50 calculator.”
Specifically, the Promega Real-Time-Glo cell viability kit was used to determine the optimal concentration for cell plating so that each cell line would be within the linear part of its growth curve after 72 hrs in culture. […] Test compounds are then added at different concentrations for the creation of six-point curve and cell density is determined using the Promega Real-Time-Glo cell viability kit after 24, 48, and 72 hrs in culture. […]

SMILES strings stand for the structures.

As usually defined, the IC50 is the point on the concentration scale where inhibition reaches its midpoint. On to `COc1cc2c(Nc3ccncc3)nc(N3CCC(F)(F)CC3)nc2cc1OCCCN1CCCC1` [Compound 7, 2-(4,4-difluoropiperidin-1-yl)-6-methoxy-N-(pyridin-4-yl)-7-(3-(pyrrolidin-1-yl)propoxy)quinazolin-4-amine], for which, in test [1], the “DSS Efficacy” value is reported as “−”. Besides, the IC50 (with A-498; with 5637; in test [2]) was 1 to 5 µM in each case.
In the case of `COc1cc2c(NC3CCN(C(C)C)CC3)nc(-n3ccnc3)nc2cc1OCCCN1CCCC1` [Compound 156, 2-(1H-imidazol-1-yl)-N-(1-isopropylpiperidin-4-yl)-6-methoxy-7-(3-(pyrrolidin-1-yl)propoxy)quinazolin-4-amine], the IC50 with A-498 is 5 to 10 µM; in the test with 5637, 1 to 5 µM; in test [2] it was 1 to 5 µM.
